# Read-outs that look alike come from different tables or passages of the source.
# What was measured:
# MRSA NCTC 10442 = assay: MIC, broth microdilution; format: cell-based; details: Staphylococcus aureus; 24-hour incubation, MHB; read-out: MIC90 MRSA NCTC 10442
# Experimental: (§1) MIC was determined using the broth microdilution method in accordance with Clinical and Laboratory Standards Institute guidelines. All compounds were dissolved in dimethyl sulfoxide (DMSO; final DMSO concentration of less than 0.5%) and sterile double-distilled water and then diluted with Mueller-Hinton broth (MHB). Each compound’s stock solution was serially twofold diluted, resulting in concentrations ranging from 0.39 to 100 μg/ml, and thereafter added to sterile 96-well plates. All bacterial cell suspensions were adjusted in MHB to attain a starting inoculum of 1 × 10^6 cells/ml. A total of 100 μl volume of the bacterial suspension was then added to each well. Following a 24-hour incubation at 37°C, the optical density at 600 nm (OD600) was confirmed by measuring absorbance at 600 nm with a BioTek microplate reader. […] All measurements were repeated three times with duplicates each time.
# MRSA N315 = assay: MIC, broth microdilution; format: cell-based; details: Staphylococcus aureus, 24-hour incubation, MHB, read-out: MIC90 MRSA N315
# Experimental: as §1
# S. aureus ATCC 29213 = assay: MIC, broth microdilution; format: cell-based; details: Staphylococcus aureus, ATCC29213, 24 h, 24-hour incubation, MHB; read-out: MIC90 S. aureus ATCC 29213
# Experimental: as §1
# E. coli ATCC 25922 = assay: MIC, broth microdilution; format: cell-based, Escherichia coli; details: 24-hour incubation, MHB; for MIC90: Escherichia coli, ATCC25922, 24 h, read-out: MIC90 E. coli ATCC 25922
# Experimental: as §1
# rabbit erythrocytes = assay: Hemolysis assay; format: cell-based; details: concentration causing 50% hemolysis of red blood cells; 1 hour, 37°C
# Experimental: The hemolytic activity of antimicrobial agents was investigated as previously described ([70]). Briefly, the rabbit erythrocytes were centrifuged at 2500 rpm for 3 min before being washed twice with sterile phosphate-buffered saline (PBS) (pH 7.4). Subsequently, the erythrocytes were diluted with PBS to a final concentration of 8% (v/v). The DMSO-dissolved compounds were twofold serially diluted in PBS to achieve a final concentration with DMSO less than 0.5%. […] Sterile PBS and 0.2% Triton X-100 were used as negative and positive controls, respectively. After 1 hour of incubation at 37°C, the tested samples were centrifuged at 2500 rpm for 5 min, and aliquots of the supernatant were added to 96-well microplates. The hemoglobin release was determined by measuring the absorbance at 576 nm using a BioTek multimode reader. The percentage of hemolytic activity was calculated using the following formula: Hemolysis rate (%) = [OD576 (compound) − OD576 (PBS)]/[OD576 (Triton X-100) − OD576 (PBS)] × 100. All measurements were repeated three times with duplicates each time.
# [1] = not the whole compound, cited from earlier work
# [2] = test system: tested strains (Gram-positive and Gram-negative bacteria); assay: MIC, summary over the tested strains; format: cell-based; details: read-out: MICs against the tested strains
# Experimental: as §1
# K. pneumonia ATCC 14581 = assay: MIC, broth microdilution; format: cell-based; details: Klebsiella pneumoniae, ATCC14581; 24-hour incubation, MHB
# Experimental: as §1
# P. aeruginosa ATCC 9027 = assay: MIC, broth microdilution; format: cell-based; details: Pseudomonas aeruginosa, ATCC9027; 24-hour incubation, MHB
# Experimental: as §1
# K. pneumonia ATCC 10031 = assay: MIC, broth microdilution; format: cell-based; details: Klebsiella pneumoniae, ATCC10031; 24-hour incubation, MHB
# Experimental: as §1
# A. baumannii R2889 = assay: MIC, broth microdilution; format: cell-based; details: Acinetobacter baumannii, 24-hour incubation, MHB
# Experimental: as §1
# A. baumannii ATCC 17978 = assay: MIC, broth microdilution; format: cell-based; details: Acinetobacter baumannii, ATCC17978; 24-hour incubation, MHB
# Experimental: as §1
# Gram-positive bacteria = assay: MIC, summary over Gram-positive strains; format: cell-based; details: read-out: MICs against Gram-positive bacteria, three Gram-positive strains
# Experimental: as §1
# Gram-negative bacteria = assay: MIC, Gram-negative strains; format: cell-based; details: read-out: MICs against Gram-negative bacteria
# Experimental: as §1
# CCK-8 cytotoxicity assay = format: cell-based; details: mouse, NCTC clone 929 fibroblast cells, 25 μg/ml, read-out: %Viable cells NCTC clone 929 cells
# Experimental: Cytotoxicity of the compound tested was assessed by CCK-8 assays as previously described ([71]). […] Following a 24-hour incubation, 10 μl of CCK-8 reagent was added to each well and incubated for 1 hour. The absorbance at 450 nm was measured by a microplate reader. All measurements were repeated three times with duplicates each time.
# [3] = Gram-positive and Gram-negative strains
SMILES,MIC90 (MRSA NCTC 10442) [µg/mL],MIC90 (MRSA N315) [µg/mL],MIC90 (S. aureus ATCC 29213) [µg/mL],MIC90 (E. coli ATCC 25922) [µg/mL],HC50 (rabbit erythrocytes) [µg/mL],pKa ([1]; for the free thiomorpholine group),MIC ([2]; 24 h) [µg/mL],"MIC [2, 3] [µg/mL]",MIC90 (K. pneumonia ATCC 14581) [µg/mL],MIC90 (P. aeruginosa ATCC 9027) [µg/mL],MIC90 (K. pneumonia ATCC 10031) [µg/mL],MIC90 (A. baumannii R2889) [µg/mL],MIC90 (A. baumannii ATCC 17978) [µg/mL],MIC (Gram-positive bacteria) [µg/mL],MIC90 E. coli ATCC 25922 (E. coli ATCC 25922) [µg/mL],MIC (Gram-negative bacteria) [µg/mL],pKa ([1]; for the free primary amine group),"viability at 24 h, 25 μg/ml (CCK-8 cytotoxicity assay) [%]"
CC(C)=CCOc1cc(OCCCN2CCSCC2)cc2oc3cc(OCCCN4CCSCC4)ccc3c(=O)c12 [XT11],> 50,> 50,> 50,> 50,>200,9.0,> 50,,,,,,,,,,,
CNCCCOc1ccc2c(=O)c3c(OCCCC(F)(F)F)cc(OCCCNC)cc3oc2c1 [XT16],> 50,> 50,50,> 100,>200,,50 to 100,,,,,,,,,,,
CCN(CC)CCCOc1ccc2c(=O)c3c(OCC=C(C)C)cc(OCCCN(CC)CC)cc3oc2c1 [XT09],6.25,12.5,6.25,50,>200,,,6.25 to 50,,,,,,,,,,
CC(C)=CCOc1cc(OCCCCN)cc2oc3cc(OCCCCN)ccc3c(=O)c12 [XT33],3.12,3.12,3.12,12.5,>200,,,,,,,,,,,,,
CC(C)=CCOc1cc(OCCNC(=N)N)cc2oc3cc(OCCNC(=N)N)ccc3c(=O)c12 [XT42],1.56,1.56,1.56,,>200,,,,50,6.25,50,> 50,> 50,0.098 to 1.56,,,,
O=c1c2ccc(O)cc2oc2cc(O)cc(O)c12 [XT01],50,50,50,> 100,>200,,,,> 50,> 50,> 50,> 50,> 50,,,,,
CC(C)=CCOc1cc(OCCCNCCN(CCN)CCN)cc2oc3cc(OCCCNCCN(CCN)CCN)ccc3c(=O)c12 [XT13],6.25,6.25,6.25,50,>200,,,6.25 to 50,,,,,,,,,,
"CC1(C)S[C@@H]2[C@H](NC(=O)[C@H](N)c3ccc(O)cc3)C(=O)N2[C@H]1C(=O)O [AMO, amoxicillin, reference compound]",,,,6.25,>200,,,,,,,,,,,,,
CC(C)=CCOc1cc(OCCCN2CCCC2)cc2oc3cc(OCCCN4CCCC4)ccc3c(=O)c12 [XT12],6.25,12.5,6.25,25,>200,,,6.25 to 25,,,,,,,,,,
CNCCCCCCOc1ccc2c(=O)c3c(OCC=C(C)C)cc(OCCCCCCNC)cc3oc2c1 [XT34],1.56,1.56,1.56,12.5,>200,,,,,,,,,,,,,
CC(C)=CCOc1cc(OCCCCCCCCNC(=N)N)cc2oc3cc(OCCCCCCCCNC(=N)N)ccc3c(=O)c12 [XT45],0.39,0.195,0.39,,>200,,,,25,> 50,12.5,50,50,0.098 to 1.56,,,,
CCCCN(CCCC)CCCOc1ccc2c(=O)c3c(OCC=C(C)C)cc(OCCCN(CCCC)CCCC)cc3oc2c1 [XT10],12.5,6.25,12.5,> 50,>200,,,,,,,,,,,,,
CCN(CC)CCCCCCCCOc1ccc2c(=O)c3c(OCC=C(C)C)cc(OCCCCCCCCN(CC)CC)cc3oc2c1 [XT38],1.56,0.78,0.39,> 50,>200,,,,,,,,,,,,,
CCN(CC)CCCCOc1ccc2c(=O)c3c(OCC=C(C)C)cc(OCCCCN(CC)CC)cc3oc2c1 [XT32],3.12,6.25,3.12,100,>200,,,,,,,,,,,,,
CNCCCCCCCCOc1ccc2c(=O)c3c(OCC=C(C)C)cc(OCCCCCCCCNC)cc3oc2c1 [XT37],0.39,0.39,0.78,6.25,>200,,,,,,,,,,,,,
CNCCCCCCCCCCCCOc1ccc2c(=O)c3c(OCC=C(C)C)cc(OCCCCCCCCCCCCNC)cc3oc2c1 [XT40],6.25,12.5,25,> 100,>200,,,,,,,,,,>100,,,
CCN(CC)CCCCCCOc1ccc2c(=O)c3c(OCC=C(C)C)cc(OCCCCCCN(CC)CC)cc3oc2c1 [XT35],3.12,3.12,1.56,50,>200,,,,,,,,,,,,,
[H]/N=C(/N)NCCCOc1ccc2c(=O)c3c(OCC=C(C)CCC=C(C)C)cc(OCCCNC(=N)N)cc3oc2c1 [XT18],0.78,0.78,0.78,1.56,65.3 ± 2.75,,,,12.5,12.5,6.25,12.5,25,0.39,,1.56,,
CNCCCOc1ccc2c(=O)c3c(OCC=C(C)C)cc(OCCCNC)cc3oc2c1 [XT08],12.5,12.5,12.5,25,>200,,,6.25 to 50,,,,,,,,,,
CNCCCCOc1ccc2c(=O)c3c(OCC=C(C)C)cc(OCCCCNC)cc3oc2c1 [XT31],6.25,6.25,6.25,12.5,>200,,,,,,,,,,,,,
CC(C)=CCOc1cc(OCCCN)cc2oc3cc(OCCCN)ccc3c(=O)c12 [XT07],12.5,12.5,12.5,25,>200,,12.5 to 50,,,,,,,,,,10.54,
COc1cc(OCCCNC(=N)N)cc2oc3cc(OCCCNC(=N)N)ccc3c(=O)c12 [XT19],6.25,12.5,6.25,100,>200,,,,,,,,,6.25 to 12.5,,100,,
CC(C)=CCOc1cc(OCCCCNC(=N)N)cc2oc3cc(OCCCCNC(=N)N)ccc3c(=O)c12 [XT43],0.195,0.195,0.195,1.56 to 12.5,>200,,,,12.5,12.5,6.25,25,12.5,0.098 to 1.56,1.56,,,40.3 ± 1.33
CCN(CC)CCCCCCCCCCCCOc1ccc2c(=O)c3c(OCC=C(C)C)cc(OCCCCCCCCCCCCN(CC)CC)cc3oc2c1 [XT41],3.12,3.12,,> 100,>200,,,,,,,,,,>100,,,

# Source: article PMC11881906, “Development of xanthone derivatives as effective broad-spectrum antimicrobials: Disrupting cell wall and inhibiting DNA synthesis” (Science Advances, 2025)
